Data as given in publication PMC12036557, “Functional Imaging of CYP3A4 at Multiple Dimensions Using an AI‐Driven High Performance Fluorogenic Substrate” (Small (Weinheim an Der Bergstrasse, Germany), 2025).
Where two headings read alike, the source gives them in different places.

How the values were obtained:
[1] = target: T1, CYP3A4 (Homo sapiens, UniProt P08684); experiment: NFa-based screening and characterizing of hCYP3A4 inhibitors in HLMs; settings: human, human liver microsomes, pH 7.4, probe NFa (4-hydroxylation to 4-HNFa)
[2] = target: hCYP3A4 in HLMs (Homo sapiens, UniProt P08684); experiment: as above
[3] = test system: CYP3A4; experiment: In vivo inhibitory effect against CYP3A4 (pharmacokinetics of NFa with inhibitor); parameters: species or system C57 mice; settings: inhibitor 50 mg/kg i.g., NFa 20 mg/kg i.g., mice
[4] = test system: CYP3A4; experiment: Liver organ imaging in the presence of CYP3A4 inhibitor (ex vivo); settings: mouse, excised whole liver tissue (ex vivo), probe NFa (50 µM); whole mice liver, inhibitor 1 h, NFa 50 µM 30 min; read-out: IC50 (4‐HNFa levels in liver tissue)
[5] = target: T1, CYP3A4; experiment: Inhibitory effect of D13 in CHO-3A4 stably transfected cell line; assay type: cell-based; parameters: expressed in transfected cells; host or cells: CHO-3A4 stably transfected cell line; settings: CHO-3A4 cells, D13 1 h, NFa 10 μM 30 min; read-out: inhibitory effect (IC50) in living cells
[6] = target: T1, CYP3A4; experiment: NFa-based inhibition assay in recombinant hCYP3A4; assay type: biochemical; parameters: purchased Cypex; settings: read-out: IC50 against CYP3A4‐catalyzed NFa 4‐hydroxylation
[7] = test system: CYP3A; experiment: Functional imaging of CYP3A4 in mouse liver tissue slices; settings: pre‐incubated 1 h, inhibitor 20 µM
[8] = target: T1, CYP3A4; experiment: in vitro; settings: pH 7.4
[9] = test system: MCF‐7, Hep3B, and U87 cells; experiment: Cytotoxicity assays; assay type: cell-based
[10] = test system: panel of human recombinant cytochrome P450 enzymes; experiment: P450 reaction phenotyping analysis; assay type: biochemical; settings: each recombinant CYP 2.5 nM, 37 °C, 30 min
[11] = Optical properties, photostability and pH stability of NFa and 4-HNFa; assay type: physicochemical; parameters: maximum UV absorption: unit not given here
[12] = Safety test of NFa in healthy mice; assay type: in vivo, C57BL/6J mice; settings: oral 100 mg kg^−1 per day, 14 consecutive days
[13] = target: T1, CYP3A4; experiment: Functional imaging of hCYP3A4 in living cells; assay type: cell-based; settings: MCF‐7 and Hep3B cells
[14] = test system: Hep3B cells; experiment: Cell-membrane permeability in Hep3B cells; assay type: cell-based; settings: 20 μM, 60 min
[15] = test system: NCM460 cells; experiment: Cell-membrane permeability in NCM460 cells; assay type: cell-based; settings: 20 μM, 60 min
[16] = target: T1, CYP3A4; experiment: Enzyme kinetic analyses of NFs 4-hydroxylation by hCYP3A4; assay type: biochemical; parameters: purchased Cypex
[17] = In vivo inhibitory effect against CYP3A4 (pharmacokinetics of NFa with inhibitor); parameters: species or system C57 mice; settings: C57, mouse, plasma, po, 20 mg/kg, mice plasma; for AUC: read-out: AUC(0‐inf)
[18] = target: T2, aldehyde oxidase (AO) (Homo sapiens, UniProt Q06278); experiment: Oxidative metabolism of NFa in AO (human liver cytosol); assay type: in vitro ADME; settings: NFa 20 μM, human liver cytosol without NADPH, 30 min
T2 construct: The oxidative metabolism of NFa in human liver cytosol (HLC) without NADPH; from tissue; host or cells: human liver cytosol
T2 sequence (Q06278 1-1338): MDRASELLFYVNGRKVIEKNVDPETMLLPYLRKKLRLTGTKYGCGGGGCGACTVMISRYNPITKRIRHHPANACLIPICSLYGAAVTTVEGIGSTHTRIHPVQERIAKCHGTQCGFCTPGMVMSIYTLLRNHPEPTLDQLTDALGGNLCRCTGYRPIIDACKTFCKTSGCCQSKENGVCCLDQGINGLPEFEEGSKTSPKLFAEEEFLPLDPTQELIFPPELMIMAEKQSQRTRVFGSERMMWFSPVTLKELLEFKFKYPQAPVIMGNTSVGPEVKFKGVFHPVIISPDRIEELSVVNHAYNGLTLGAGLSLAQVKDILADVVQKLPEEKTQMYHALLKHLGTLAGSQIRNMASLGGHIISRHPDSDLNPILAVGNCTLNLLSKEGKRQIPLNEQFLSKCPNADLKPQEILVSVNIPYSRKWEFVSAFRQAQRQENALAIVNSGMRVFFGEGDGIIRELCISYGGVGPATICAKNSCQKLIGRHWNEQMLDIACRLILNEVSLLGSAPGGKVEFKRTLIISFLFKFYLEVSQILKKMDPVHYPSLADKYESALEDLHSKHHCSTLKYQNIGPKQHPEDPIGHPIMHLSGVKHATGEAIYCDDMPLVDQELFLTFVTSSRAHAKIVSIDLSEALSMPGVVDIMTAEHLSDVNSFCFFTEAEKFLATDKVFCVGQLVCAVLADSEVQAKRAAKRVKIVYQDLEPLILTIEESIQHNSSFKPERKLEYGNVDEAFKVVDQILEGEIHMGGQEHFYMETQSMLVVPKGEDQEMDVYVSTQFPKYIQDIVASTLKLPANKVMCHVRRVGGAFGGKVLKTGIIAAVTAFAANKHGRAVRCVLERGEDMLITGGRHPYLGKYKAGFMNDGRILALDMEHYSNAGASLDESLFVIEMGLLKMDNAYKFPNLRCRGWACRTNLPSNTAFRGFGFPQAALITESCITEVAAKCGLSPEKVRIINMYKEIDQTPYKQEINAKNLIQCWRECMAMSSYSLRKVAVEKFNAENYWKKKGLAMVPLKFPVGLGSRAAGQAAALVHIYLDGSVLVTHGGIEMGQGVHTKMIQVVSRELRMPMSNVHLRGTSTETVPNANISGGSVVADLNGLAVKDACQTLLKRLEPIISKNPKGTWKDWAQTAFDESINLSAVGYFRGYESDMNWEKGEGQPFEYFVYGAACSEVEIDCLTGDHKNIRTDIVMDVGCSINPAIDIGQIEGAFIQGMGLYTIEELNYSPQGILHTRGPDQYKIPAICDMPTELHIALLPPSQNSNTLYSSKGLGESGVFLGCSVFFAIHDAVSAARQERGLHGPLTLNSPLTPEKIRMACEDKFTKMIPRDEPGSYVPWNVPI

[19] = target: T1, CYP3A4; experiment: Fluorescence response of NFa toward hCYP3A4; assay type: biochemical; parameters: purchased Cypex
[20] = Pharmacokinetics and oral bioavailability of NFa; assay type: in vivo; settings: mice
[21] = target: T3, P-gp (Homo sapiens, UniProt P08183); experiment: Identification of the P-gp substrates in living cells (MDR1-MDCK); assay type: cell-based; settings: with/without verapamil
T3 construct: expressed in transfected cells; host or cells: MDR1-MDCK

[22] = test system: FMO1, FMO3, FMO5; experiment: Oxidative metabolism of NFa in FMOs; assay type: in vitro ADME; settings: NFa 20 μM, NADPH, 30 min
[23] = test system: CYP3A4; parameters: method as in PMID 22971642; settings: RTV 50 mg kg^−1, mice; cited from earlier work
[24] = NFa 20 mg/kg i.g. with D13 50 mg/kg i.g.
[25] = NFa 20 mg/kg i.g. with RTV 50 mg/kg i.g.
[26] = NFa 20 mg/kg i.g., control group CMC‐Na
[27] = mouse, plasma, po, 20 mg/kg, i.g.

T1 sequence (P08684 whole entry): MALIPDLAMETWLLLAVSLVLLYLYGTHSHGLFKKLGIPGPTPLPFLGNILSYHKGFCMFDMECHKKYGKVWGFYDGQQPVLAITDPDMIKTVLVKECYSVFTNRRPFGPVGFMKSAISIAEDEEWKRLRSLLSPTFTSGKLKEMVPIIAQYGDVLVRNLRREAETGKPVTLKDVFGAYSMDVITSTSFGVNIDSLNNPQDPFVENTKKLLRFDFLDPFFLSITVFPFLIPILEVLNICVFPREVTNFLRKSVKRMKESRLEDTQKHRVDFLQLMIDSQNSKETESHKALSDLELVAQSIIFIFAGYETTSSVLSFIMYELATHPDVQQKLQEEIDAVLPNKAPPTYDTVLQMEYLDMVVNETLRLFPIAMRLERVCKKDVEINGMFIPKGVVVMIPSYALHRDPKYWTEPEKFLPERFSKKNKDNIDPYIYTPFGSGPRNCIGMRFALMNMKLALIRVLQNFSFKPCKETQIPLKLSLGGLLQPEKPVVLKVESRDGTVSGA
hCYP3A4 in HLMs, sequence (P08684 whole entry): as above
T3 sequence (P08183 whole entry): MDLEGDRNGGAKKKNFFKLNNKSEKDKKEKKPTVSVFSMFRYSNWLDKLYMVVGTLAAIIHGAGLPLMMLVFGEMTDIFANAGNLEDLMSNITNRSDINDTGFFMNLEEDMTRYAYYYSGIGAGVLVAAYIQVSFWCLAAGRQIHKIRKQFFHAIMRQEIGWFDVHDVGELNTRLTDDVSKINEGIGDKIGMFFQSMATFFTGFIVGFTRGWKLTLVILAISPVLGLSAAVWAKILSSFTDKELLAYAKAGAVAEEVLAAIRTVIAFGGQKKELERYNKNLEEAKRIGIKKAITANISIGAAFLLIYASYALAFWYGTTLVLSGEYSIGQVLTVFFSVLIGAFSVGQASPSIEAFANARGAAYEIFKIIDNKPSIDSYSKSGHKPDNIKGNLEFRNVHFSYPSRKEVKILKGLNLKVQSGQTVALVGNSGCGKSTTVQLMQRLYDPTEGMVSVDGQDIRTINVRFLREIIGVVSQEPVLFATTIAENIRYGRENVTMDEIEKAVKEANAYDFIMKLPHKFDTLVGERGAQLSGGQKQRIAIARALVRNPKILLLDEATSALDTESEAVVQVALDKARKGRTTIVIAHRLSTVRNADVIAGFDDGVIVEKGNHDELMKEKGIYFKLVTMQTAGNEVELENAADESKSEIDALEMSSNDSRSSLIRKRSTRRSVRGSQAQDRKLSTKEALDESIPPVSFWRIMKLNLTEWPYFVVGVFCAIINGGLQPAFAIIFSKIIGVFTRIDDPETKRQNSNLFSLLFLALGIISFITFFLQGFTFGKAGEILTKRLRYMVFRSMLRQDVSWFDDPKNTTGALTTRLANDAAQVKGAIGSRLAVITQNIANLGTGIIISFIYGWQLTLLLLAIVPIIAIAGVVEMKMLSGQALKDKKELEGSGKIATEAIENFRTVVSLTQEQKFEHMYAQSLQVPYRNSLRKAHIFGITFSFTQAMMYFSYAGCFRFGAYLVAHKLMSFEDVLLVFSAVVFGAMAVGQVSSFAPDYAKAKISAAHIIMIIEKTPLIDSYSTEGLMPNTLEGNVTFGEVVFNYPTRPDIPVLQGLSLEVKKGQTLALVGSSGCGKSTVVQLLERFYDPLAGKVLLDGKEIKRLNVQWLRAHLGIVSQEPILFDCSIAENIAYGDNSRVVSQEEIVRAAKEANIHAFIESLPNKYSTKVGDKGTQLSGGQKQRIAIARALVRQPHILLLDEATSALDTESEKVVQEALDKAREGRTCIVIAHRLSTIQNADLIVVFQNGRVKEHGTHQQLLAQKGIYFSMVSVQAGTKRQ

O=C(/C=C/c1ccc2cnccc2c1)c1ccc(N2CCCC2)cc1 [D13, (E)-3-(isoquinolin-6-yl)-1-(4-(pyrrolidin-1-yl)phenyl)prop-2-en-1-one]
activity at 30 min, 1 µM [1]: 4.08%
IC50 [2]: 13.6 nM
Residual activity ([2]; inhibitor 1 μM, HLMs, NFa as fluorogenic substrate): completely inhibited
Ratio of AUC(0‐inf) of NFa (inhibitor group / control group) [3]: 7.22
Ratio of C max of NFa (inhibitor group / control group) [3]: 2.37
Ratio of T max of NFa (inhibitor group / control group) [3]: 0.56
Ratio of t 1/2 of NFa (inhibitor group / control group) [3]: 2.87
IC50 [4]: 270 ± 50 nM
IC50 [5]: 25.4 nM
IC50 [6]: 10.9 nM

CC(=O)N1CCN(c2ccc(OCC3COC(Cn4ccnc4)(c4ccc(Cl)cc4Cl)O3)cc2)CC1 (centres unmarked) [KET, ketoconazole, reference compound]
effect on NFa green signals in mouse liver slices [7]: significantly blocked
activity at 30 min, 1 µM [8]: 1.91%

O=C1c2cccc3cccc(c23)C(=O)N1Cc1cscn1 [NFa, N-(4-Thiazolemethanamino)-naphtahlimide]
cytotoxicity [9]: weak cytotoxicity
isoform specificity as P450 substrate [10]: highly specific substrates for hCYP3A4
Molar extinction coefficient ε [11]: 44300 M⁻¹ cm⁻¹
maximum UV absorption [11]: 340
maximum fluorogenic emission [11]: 390 nm
biochemical assays and H&E staining findings [12]: no haematotoxicity, organ injuries, or apparent abnormalities
body weight [12]: gradual increase
mortality [12]: no mortality
Pearson's coefficient of co‐localization with ER‐Tracker Red [13]: 0.99
enhancement of cell‐membrane permeability versus NEN [14]: 5.6 fold
enhancement of cell‐membrane permeability versus NEN [15]: 28 fold
K m [16]: 13.33 ± 1.01 µM
Cmax [17, 24]: 498 ± 209 ng/mL
Tmax [17, 24]: 0.7 ± 0.27 h
half-life [17, 24]: 6.37 ± 4.65 h
AUC [17, 24]: 4630 ± 2230 ng·h/mL
Cmax [17, 25]: 494 ± 131 ng/mL
Tmax [17, 25]: 0.95 ± 0.67 h
half-life [17, 25]: 8.09 ± 7.52 h
AUC [17, 25]: 5800 ± 5000 ng·h/mL
Cmax [17, 26]: 210 ± 125 ng/mL
Tmax [17, 26]: 1.25 ± 0.61 h
half-life [17, 26]: 2.22 ± 0.94 h
AUC [17, 26]: 642 ± 146 ng·h/mL
participation of AO in the oxidative metabolism [18]: did not participate
limit of detection for sensing hCYP3A4 [19]: 0.047 nM
interference from endogenous fatty acids, amino acids, and cations on NFa 4‐hydroxylation by hCYP3A4 ([19]; NFa 10 μM, 37 ℃, 30 min): no interference
enhancement in fluorescence emission ≈555 nM ([19]; NFa 10 µM, hCYP3A4 10 nM, 37 °C, 30 min, λex 450): 154 fold
Oral bioavailability ([20]; 20 mg/kg i.g. vs 2 mg/kg i.v.): 15.27%
AUC(0-inf) ([20]; mouse, plasma, iv, 2 mg/kg): 439 ± 40.7 ng·h/mL
Cmax ([20]; mouse, plasma, iv, 2 mg/kg): 913 ± 116 ng/mL
Tmax ([20]; mouse, plasma, iv, 2 mg/kg): 0.083 h
half-life ([20]; mouse, plasma, iv, 2 mg/kg): 1.24 ± 0.39 h
bioavailability ([20]; mouse, plasma, oral, 20 mg/kg, 20 mg/kg i.g. vs 2 mg/kg i.v.): 15.3%
AUC(0-inf) [20, 27]: 670 ± 232 ng·h/mL
Cmax [20, 27]: 250 ± 90 ng/mL
Tmax [20, 27]: 1.17 ± 0.41 h
half-life [20, 27]: 1.55 ± 0.61 h
P‐gp substrate status [21]: non‐substrate for P‐gp
participation of FMOs in the oxidative metabolism [22]: did not participate

CC(C)c1nc(CN(C)C(=O)N[C@H](C(=O)N[C@@H](Cc2ccccc2)C[C@H](O)[C@H](Cc2ccccc2)NC(=O)OCc2cncs2)C(C)C)cs1 [RTV, Ritonavir]
increase of AUCinf of midazolam (oral) when co‐administered with RTV [23]: five‐fold
